In ChEMBL document CHEMBL5696441 (Nat Chem Biol, 2011):

Key:
[1] = system: Epidermal growth factor receptor (Homo sapiens), P00533 [UNDEFINED MUTATION]; experiment: Inhibition of EGFR L747-S752del/P753S mutant (unknown origin) assessed as remaining activity at 1 uM by Kinome scan method relative to control
[2] = system: Serine/threonine-protein kinase B-raf (Homo sapiens), P15056 [V600E]; experiment: Inhibition of BRAF V600E mutant (unknown origin) assessed as remaining activity at 1 uM by Kinome scan method relative to control
[3] = system: Epidermal growth factor receptor (Homo sapiens), P00533 [L858R,T790M]; experiment: Inhibition of EGFR L858R/T790M mutant (unknown origin) assessed as remaining activity at 1 uM by Kinome scan method relative to control
[4] = target: Platelet-derived growth factor receptor beta (Homo sapiens) (UniProt P09619); experiment: Inhibition of human PDGFRbeta assessed as residual activity at 1 uM using poly(Ala,Glu,Lys,Tyr) as substrate in presence of 33P-ATP by ProQinase assay relative to control
[5] = target: Serine/threonine-protein kinase PAK 1 (Homo sapiens) (UniProt Q13153); experiment: Inhibition of PAK1 (unknown origin) assessed as remaining activity at 1 uM by Kinome scan method relative to control
[6] = target: Cyclin-dependent kinase 5/CDK5 activator 1 (Homo sapiens) (UniProt Q00535+Q15078); experiment: Inhibition of human CDK5/p35NCK assessed as residual activity at 1 uM using RBER-CHKtide as substrate in presence of 33P-ATP by ProQinase assay relative to control; type: protein-complex assay
[7] = target: Ephrin type-A receptor 5 (Homo sapiens) (UniProt P54756); experiment: Inhibition of EPHA5 (unknown origin) assessed as remaining activity at 1 uM by Kinome scan method relative to control
Sequence of Ephrin type-A receptor 5 (Homo sapiens) (P54756 whole entry): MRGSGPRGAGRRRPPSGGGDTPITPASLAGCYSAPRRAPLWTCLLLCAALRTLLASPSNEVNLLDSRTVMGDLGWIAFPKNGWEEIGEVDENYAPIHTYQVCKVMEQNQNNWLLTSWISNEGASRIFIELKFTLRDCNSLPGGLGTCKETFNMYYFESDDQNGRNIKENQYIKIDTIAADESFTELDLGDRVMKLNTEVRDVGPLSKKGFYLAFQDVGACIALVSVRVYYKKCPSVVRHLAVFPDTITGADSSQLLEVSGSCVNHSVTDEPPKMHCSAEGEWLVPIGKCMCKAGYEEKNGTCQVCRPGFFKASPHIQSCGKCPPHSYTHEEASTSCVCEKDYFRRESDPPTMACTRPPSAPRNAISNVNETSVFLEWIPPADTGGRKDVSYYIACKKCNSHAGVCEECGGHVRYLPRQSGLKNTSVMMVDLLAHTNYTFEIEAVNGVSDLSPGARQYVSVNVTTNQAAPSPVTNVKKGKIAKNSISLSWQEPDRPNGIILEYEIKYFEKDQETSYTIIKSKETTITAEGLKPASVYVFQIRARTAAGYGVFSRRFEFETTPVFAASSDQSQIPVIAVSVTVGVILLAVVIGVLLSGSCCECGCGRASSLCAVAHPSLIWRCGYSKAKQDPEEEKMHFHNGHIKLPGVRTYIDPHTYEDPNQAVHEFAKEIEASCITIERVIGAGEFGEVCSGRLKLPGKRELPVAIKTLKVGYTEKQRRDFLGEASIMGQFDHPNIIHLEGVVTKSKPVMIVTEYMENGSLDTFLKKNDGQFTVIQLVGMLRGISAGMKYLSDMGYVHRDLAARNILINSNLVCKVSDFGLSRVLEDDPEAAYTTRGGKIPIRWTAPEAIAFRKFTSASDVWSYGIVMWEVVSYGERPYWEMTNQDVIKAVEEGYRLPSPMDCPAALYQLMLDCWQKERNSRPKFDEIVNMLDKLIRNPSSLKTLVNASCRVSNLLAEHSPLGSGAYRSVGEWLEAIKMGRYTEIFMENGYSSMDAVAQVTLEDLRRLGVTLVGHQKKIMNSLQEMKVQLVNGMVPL

[8] = target: Serine/threonine-protein kinase Nek11 (Homo sapiens) (UniProt Q8NG66); experiment: Inhibition of human NEK11 assessed as residual activity at 1 uM using MBP as substrate in presence of 33P-ATP by ProQinase assay relative to control
[9] = target: Mitogen-activated protein kinase kinase kinase 9 (Homo sapiens) (UniProt P80192); experiment: Inhibition of human MAP3K9 assessed as residual activity at 1 uM using RBER-GSK3 as substrate in presence of 33P-ATP by ProQinase assay relative to control
[10] = system: Tyrosine-protein kinase ABL1 (Homo sapiens), P00519 [E255K]; experiment: Inhibition of human ABL1 E255K mutant assessed as residual activity at 1 uM using Poly(Ala,Glu,Lys,Tyr)6:2:5:1 as substrate in presence of 33P-ATP by ProQinase assay relative to control
[11] = target: Homeodomain-interacting protein kinase 2 (Homo sapiens) (UniProt Q9H2X6); experiment: Inhibition of human HIPK2 assessed as residual activity at 1 uM using RBER-CHKtide as substrate in presence of 33P-ATP by ProQinase assay relative to control
[12] = target: Dual specificity protein kinase TTK (Homo sapiens) (UniProt P33981); experiment: Inhibition of human TTK assessed as residual activity at 1 uM using RBER-CHKtide as substrate in presence of 33P-ATP by ProQinase assay relative to control
Sequence of Dual specificity protein kinase TTK (Homo sapiens) (P33981 whole entry): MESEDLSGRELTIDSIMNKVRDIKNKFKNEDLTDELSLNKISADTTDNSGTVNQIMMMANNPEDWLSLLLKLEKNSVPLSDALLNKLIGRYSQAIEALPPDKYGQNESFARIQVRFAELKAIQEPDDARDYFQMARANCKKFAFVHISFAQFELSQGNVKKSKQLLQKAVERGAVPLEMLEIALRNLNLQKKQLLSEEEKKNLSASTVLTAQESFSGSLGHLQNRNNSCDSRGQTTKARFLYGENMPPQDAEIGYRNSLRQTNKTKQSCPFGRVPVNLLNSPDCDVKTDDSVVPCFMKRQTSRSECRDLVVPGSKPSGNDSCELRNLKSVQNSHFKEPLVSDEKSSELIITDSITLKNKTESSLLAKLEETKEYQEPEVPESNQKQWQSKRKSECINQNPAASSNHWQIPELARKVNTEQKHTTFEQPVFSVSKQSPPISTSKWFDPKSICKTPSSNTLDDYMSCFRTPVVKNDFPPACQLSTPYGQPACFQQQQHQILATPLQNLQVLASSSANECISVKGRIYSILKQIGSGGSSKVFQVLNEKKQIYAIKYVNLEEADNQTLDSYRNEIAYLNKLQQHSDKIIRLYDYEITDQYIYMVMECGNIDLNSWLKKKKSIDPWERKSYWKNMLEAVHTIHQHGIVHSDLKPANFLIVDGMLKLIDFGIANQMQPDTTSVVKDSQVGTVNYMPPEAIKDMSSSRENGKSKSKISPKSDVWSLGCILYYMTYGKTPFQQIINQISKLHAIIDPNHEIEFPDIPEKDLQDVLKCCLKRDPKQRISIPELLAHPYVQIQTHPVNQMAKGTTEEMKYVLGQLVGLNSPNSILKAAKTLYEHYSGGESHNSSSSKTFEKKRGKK

[13] = Anti-inflammatory activity against human derived medium respond PBMC cells assessed as inhibition in stimulated MCP-1 chemokine release incubated for 2 hrs in the presence of LPS/SEB/aCD28 by Luminex based sandwich immunoassay; type: functional, cell-based
[14] = target: Ribosomal protein S6 kinase alpha-1 (Homo sapiens) (UniProt Q15418); experiment: Inhibition of C-terminal kinase domain RPS6KA1 (unknown origin) assessed as remaining activity at 1 uM by Kinome scan method relative to control
Sequence of Ribosomal protein S6 kinase alpha-1 (Homo sapiens) (Q15418 whole entry, the tested form may be a part): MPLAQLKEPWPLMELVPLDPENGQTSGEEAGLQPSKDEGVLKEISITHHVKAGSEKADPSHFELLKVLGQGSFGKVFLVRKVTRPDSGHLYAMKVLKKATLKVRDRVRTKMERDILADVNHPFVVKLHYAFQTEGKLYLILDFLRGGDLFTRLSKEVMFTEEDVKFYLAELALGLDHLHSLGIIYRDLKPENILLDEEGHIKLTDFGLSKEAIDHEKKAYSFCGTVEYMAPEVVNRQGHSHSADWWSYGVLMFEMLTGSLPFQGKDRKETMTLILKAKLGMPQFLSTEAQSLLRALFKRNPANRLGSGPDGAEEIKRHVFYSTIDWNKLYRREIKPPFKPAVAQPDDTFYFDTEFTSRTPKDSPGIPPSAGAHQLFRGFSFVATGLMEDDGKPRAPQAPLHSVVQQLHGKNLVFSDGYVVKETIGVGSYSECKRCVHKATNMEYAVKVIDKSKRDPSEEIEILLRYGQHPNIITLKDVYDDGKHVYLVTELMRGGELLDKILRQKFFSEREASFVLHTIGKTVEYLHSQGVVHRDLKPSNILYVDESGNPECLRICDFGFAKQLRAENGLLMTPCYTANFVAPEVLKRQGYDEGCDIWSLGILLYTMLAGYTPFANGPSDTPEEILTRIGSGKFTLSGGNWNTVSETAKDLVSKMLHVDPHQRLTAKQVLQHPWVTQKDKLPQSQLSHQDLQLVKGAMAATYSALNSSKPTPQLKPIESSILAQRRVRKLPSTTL

[15] = Anti-inflammatory activity against human derived high respond PBMC cells assessed as inhibition in stimulated IP-10 chemokine release incubated for 2 hrs in the presence of LPS/SEB/aCD28 by Luminex based sandwich immunoassay; type: functional, cell-based
[16] = target: Cyclin-dependent kinase 5 (Homo sapiens) (UniProt Q00535); experiment: Inhibition of CDK5 (unknown origin) assessed as remaining activity at 1 uM by Kinome scan method relative to control
[17] = system: Tyrosine-protein kinase ABL1 (Homo sapiens), P00519 [Q252H]; experiment: Inhibition of ABL1 Q252H mutant (unknown origin) assessed as remaining activity at 1 uM by Kinome scan method relative to control
[18] = target: Serine/threonine-protein kinase pim-1 (Homo sapiens) (UniProt P11309); experiment: Inhibition of PIM1 (unknown origin) assessed as remaining activity at 1 uM by Kinome scan method relative to control
[19] = target: MAP kinase-interacting serine/threonine-protein kinase 1 (Homo sapiens) (UniProt Q9BUB5); experiment: Inhibition of MKNK1 (unknown origin) assessed as remaining activity at 1 uM by Kinome scan method relative to control
Sequence of MAP kinase-interacting serine/threonine-protein kinase 1 (Homo sapiens) (Q9BUB5 whole entry, looked up): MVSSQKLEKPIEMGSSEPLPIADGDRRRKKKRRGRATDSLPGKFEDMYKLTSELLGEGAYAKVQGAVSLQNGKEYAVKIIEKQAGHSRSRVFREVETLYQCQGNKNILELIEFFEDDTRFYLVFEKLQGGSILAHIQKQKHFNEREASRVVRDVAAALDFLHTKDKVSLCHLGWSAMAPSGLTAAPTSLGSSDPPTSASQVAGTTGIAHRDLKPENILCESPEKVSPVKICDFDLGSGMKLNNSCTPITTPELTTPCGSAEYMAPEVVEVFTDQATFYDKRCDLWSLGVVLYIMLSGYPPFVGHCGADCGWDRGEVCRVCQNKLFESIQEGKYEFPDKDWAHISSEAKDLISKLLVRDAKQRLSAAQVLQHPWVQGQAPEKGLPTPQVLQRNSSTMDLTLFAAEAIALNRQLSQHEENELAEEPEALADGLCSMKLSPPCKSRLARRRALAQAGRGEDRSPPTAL

[20] = target: Serine/threonine-protein kinase MARK2 (Homo sapiens) (UniProt Q7KZI7); experiment: Inhibition of human MARK2 assessed as residual activity at 1 uM using RBER-CHKtide as substrate in presence of 33P-ATP by ProQinase assay relative to control
Sequence of Serine/threonine-protein kinase MARK2 (Homo sapiens) (Q7KZI7 whole entry): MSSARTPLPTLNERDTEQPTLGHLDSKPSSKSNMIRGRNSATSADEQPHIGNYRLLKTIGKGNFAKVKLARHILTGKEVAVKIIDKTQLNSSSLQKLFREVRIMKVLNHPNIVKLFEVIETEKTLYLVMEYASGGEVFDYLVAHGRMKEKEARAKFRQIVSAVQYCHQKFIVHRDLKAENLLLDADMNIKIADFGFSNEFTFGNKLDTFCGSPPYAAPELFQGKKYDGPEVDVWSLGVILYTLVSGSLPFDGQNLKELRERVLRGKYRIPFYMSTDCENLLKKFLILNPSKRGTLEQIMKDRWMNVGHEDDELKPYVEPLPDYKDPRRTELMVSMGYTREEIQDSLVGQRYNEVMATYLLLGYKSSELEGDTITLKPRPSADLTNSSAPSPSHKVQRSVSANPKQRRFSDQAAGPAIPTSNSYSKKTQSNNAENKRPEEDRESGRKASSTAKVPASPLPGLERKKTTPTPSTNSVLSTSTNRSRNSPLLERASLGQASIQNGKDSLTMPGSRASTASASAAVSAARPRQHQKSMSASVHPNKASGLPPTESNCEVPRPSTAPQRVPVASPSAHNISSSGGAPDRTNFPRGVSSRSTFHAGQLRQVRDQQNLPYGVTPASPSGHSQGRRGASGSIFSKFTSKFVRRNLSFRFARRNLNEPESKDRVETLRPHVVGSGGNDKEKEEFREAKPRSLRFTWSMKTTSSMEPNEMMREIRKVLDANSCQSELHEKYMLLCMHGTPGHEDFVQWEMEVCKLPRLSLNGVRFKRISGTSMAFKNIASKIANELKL

[21] = system: Epidermal growth factor receptor (Homo sapiens), P00533 [UNDEFINED MUTATION]; experiment: Inhibition of EGFR L747-T751del/Sins mutant (unknown origin) assessed as remaining activity at 1 uM by Kinome scan method relative to control
[22] = target: Interleukin-1 receptor-associated kinase 1 (Homo sapiens) (UniProt P51617); experiment: Inhibition of human IRAK1 assessed as residual activity at 1 uM using RB-CTF as substrate in presence of 33P-ATP by ProQinase assay relative to control
[23] = target: Casein kinase I isoform gamma-3 (Homo sapiens) (UniProt Q9Y6M4); experiment: Inhibition of human CK1gamma3 assessed as residual activity at 1 uM using casein as substrate in presence of 33P-ATP by ProQinase assay relative to control
[24] = target: Mitogen-activated protein kinase 1 (Homo sapiens) (UniProt P28482); experiment: Inhibition of ERK2 (unknown origin) assessed as remaining activity at 1 uM by Kinome scan method relative to control
[25] = target: Tyrosine-protein kinase Fer (Homo sapiens) (UniProt P16591); experiment: Inhibition of FER (unknown origin) assessed as remaining activity at 1 uM by Kinome scan method relative to control
[26] = target: NUAK family SNF1-like kinase 1 (Homo sapiens) (UniProt O60285); experiment: Inhibition of ARK5 (unknown origin) assessed as remaining activity at 1 uM by Kinome scan method relative to control
Sequence of NUAK family SNF1-like kinase 1 (Homo sapiens) (O60285 whole entry): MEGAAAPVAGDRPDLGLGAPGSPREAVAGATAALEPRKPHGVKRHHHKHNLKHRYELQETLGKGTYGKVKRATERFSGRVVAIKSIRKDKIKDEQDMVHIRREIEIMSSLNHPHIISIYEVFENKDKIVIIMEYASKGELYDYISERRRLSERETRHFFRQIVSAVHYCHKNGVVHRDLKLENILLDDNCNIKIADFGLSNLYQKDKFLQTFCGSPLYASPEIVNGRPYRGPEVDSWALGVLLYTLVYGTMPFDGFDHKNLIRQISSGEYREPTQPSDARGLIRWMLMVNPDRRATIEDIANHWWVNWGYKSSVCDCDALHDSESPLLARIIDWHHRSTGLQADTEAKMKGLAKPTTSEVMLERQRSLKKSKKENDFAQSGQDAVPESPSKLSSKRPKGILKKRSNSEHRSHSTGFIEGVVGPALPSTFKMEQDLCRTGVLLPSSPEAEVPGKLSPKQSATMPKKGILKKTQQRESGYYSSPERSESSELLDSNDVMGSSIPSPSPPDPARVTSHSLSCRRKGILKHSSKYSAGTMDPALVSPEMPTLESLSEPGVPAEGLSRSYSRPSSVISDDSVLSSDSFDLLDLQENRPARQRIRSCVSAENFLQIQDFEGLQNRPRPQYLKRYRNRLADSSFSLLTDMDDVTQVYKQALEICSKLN

[27] = target: Activated CDC42 kinase 1 (Homo sapiens) (UniProt Q07912); experiment: Inhibition of TNK2 (unknown origin) assessed as remaining activity at 1 uM by Kinome scan method relative to control
[28] = target: Vascular endothelial growth factor receptor 1 (Homo sapiens) (UniProt P17948); experiment: Inhibition of human VEGFR1 assessed as residual activity at 1 uM using polyEY as substrate in presence of 33P-ATP by ProQinase assay relative to control
[29] = target: Proto-oncogene tyrosine-protein kinase Src (Homo sapiens) (UniProt P12931); experiment: Inhibition of SRC (unknown origin) assessed as remaining activity at 1 uM by Kinome scan method relative to control
Sequence of Proto-oncogene tyrosine-protein kinase Src (Homo sapiens) (P12931 2-536 limits assumed): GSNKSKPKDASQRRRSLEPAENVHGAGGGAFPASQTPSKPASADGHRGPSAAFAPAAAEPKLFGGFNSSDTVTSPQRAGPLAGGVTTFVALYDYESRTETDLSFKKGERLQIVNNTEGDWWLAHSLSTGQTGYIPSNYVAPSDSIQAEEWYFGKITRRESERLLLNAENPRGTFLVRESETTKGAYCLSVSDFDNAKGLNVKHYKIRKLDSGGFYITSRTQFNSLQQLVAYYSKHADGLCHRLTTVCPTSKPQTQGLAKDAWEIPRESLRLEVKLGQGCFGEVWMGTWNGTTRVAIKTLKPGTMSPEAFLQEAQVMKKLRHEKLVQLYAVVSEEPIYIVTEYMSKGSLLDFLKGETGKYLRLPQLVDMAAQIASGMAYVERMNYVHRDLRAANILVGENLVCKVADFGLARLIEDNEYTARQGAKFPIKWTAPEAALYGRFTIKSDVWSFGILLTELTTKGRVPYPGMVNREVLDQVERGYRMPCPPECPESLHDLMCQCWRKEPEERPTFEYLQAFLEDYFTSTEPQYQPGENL

O=C1c2ccc(Nc3ccc(F)cc3F)cc2CCc2ccc(OC[C@H](O)CO)cc21 [Skepinone-L]
Activity [1]: 100% | Activity [2]: 100% | Activity [3]: 100% | Activity [4]: 96% | Activity [5]: 100% | Activity [6]: 90% | Activity [7]: 98% | Activity [8]: 113% | Activity [9]: 90% | Activity [10]: 105% | Activity [11]: 104% | Activity [12]: 83% | IC50 [13]: 90 nM | Activity [14]: 94% | IC50 [15]: Not Active | Activity [16]: 100% | Activity [17]: 93% | Activity [18]: 100% | Activity [19]: 99% | Activity [20]: 105% | Activity [21]: 98% | Activity [22]: 101% | Activity [23]: 95% | Activity [24]: 100% | Activity [25]: 100% | Activity [26]: 100% | Activity [27]: 100% | Activity [28]: 113% | Activity [29]: 100%
